Data from patent US9556231B2, “Beta-hairpin peptidomimetics as CXC4 antagonists” (POLYPHOR AG, priority 2011, dated 2017).
Bridge positions count the residues as written; N and C are the ends. Square brackets hold non-standard residues; d marks the D form. Peptide text beside a SMILES is read from it. Lys(iPr) = CC(C)NCCCC[C@H](N)C(=O)O; Orn(iPr) = CC(C)NCCC[C@H](N)C(=O)O

What was measured:
[1] = tested on: HSC mobilization; test: HSC mobilization in mouse, dose-response study (CFU-C assay); format: in vivo; conditions: C57Bl/6 mice, 5 mg/kg i.p., at time of maximum mobilization (Ex. 1 4 h, Ex. 2 2 h)
Procedure: For the compounds of Ex. 1 and Ex. 2 a HSC mobilization study was performed consisting of a time-response study to assess the time of maximum mobilization after dosing and a subsequent dose-response study.
Male C57Bl/6 mice (Janvier, France; n=5 per dose group for Ex. 1, n=3 per dose group for Ex. 2) received bolus i.p. injections of Ex. 1 and Ex. 2, respectively, at doses of 0.5, 1.5, 5 and 15 mg/kg (compound dissolved in 10 μL of water per g mouse weight containing 0.9% NaCl). Blood was collected as described above at the time of maximum mobilization for Ex. 1 (4 h) and Ex. 2 (2 h), respectively.
CFU-C counts were determined by culturing aliquots of lysed peripheral blood in standard semi-solid progenitor cell culture medium. In brief, a defined amount of blood was washed with PBS buffer (Gibco®) containing 0.5% bovine serum albumin, followed by red blood cell lysis in hypotonic NH4Cl buffer (Sigma) and a second wash step. The cell pellet was resuspended in DMEM (Gibco®) containing 10% FCS, suspended in 2 mL of commercially available, cytokine-replete methylcellulose medium for murine cells (Cell Systems, USA), and plated in duplicate into 35 mm cell culture dishes. CFU-C were scored after 7-8 days incubation under standard conditions (20% O2, saturated humidity, 5% CO2, 37° C.). Peripheral blood cellularity was analyzed using an automated blood count machine (Drew Scientific). […]

[2] = Pharmacokinetic study (PK), i.v., CD-1 mice; format: in vivo; conditions: male, CD-1, in vivo, iv, mouse, i.v. 1 mg/kg
Procedure: For the compounds of Ex. 1, Ex. 2, Ex. 3, Ex. 4, Ex. 5 and Ex. 6 pharmacokinetic studies after intravenous (i.v.) administration were performed.
30 grams (±20%) male CD-1 mice obtained from Charles River Laboratories Deutschland GmbH were used. The vehicle, phosphate buffered saline, was added to give a final concentration of 0.5 mg/mL of the compound. The volume was 2 mL/kg and the compound was injected to give a final intravenous dose of 1 mg/kg. Approximately 300-400 μL of blood was removed under light isoflurane anesthesia by cardiac puncture at predetermined time intervals (5, 15, 30 min and 1, 2, 3, 4, hours) and added to heparinized tubes. Plasma was removed from pelleted cells upon centrifugation and frozen at −80° C. prior to HPLC-MS analysis.
Aliquots of 50 μL each of mouse plasma of untreated aminals (“blank” mouse plasma) were spiked with known amounts of the compounds Ex. 1, Ex. 2, Ex. 3, Ex. 4, Ex. 5 and Ex. 6 in order to obtain 10 plasma calibration samples for each compound in the range 1-4000 ng/mL. Aliquots of 50 μL each of mouse plasma from treated animals were used as plasma study samples.
All plasma samples were spiked with an appropriate internal standard and extracted with acetonitrile containing 2% formic acid. Supernatants were evaporated to dryness under nitrogen and the remaining solids reconstituted in water/acetonitrile 95/5 (v/v)+0.2% formic acid.
Extracts were then analyzed by reverse-phase chromatography (Acquity BEH C18, 100×2.1 mm, 1.7 μm column, Waters for Ex. 1 and Acquity HSS C18 SB, 100×2.1 mm, 1.8 μm column, Waters for Ex. 2, Ex. 3, Ex. 4, Ex. 5 and Ex. 6), using the following conditions: Ex. 1, mobile phases: (A) water/acetonitrile 95/5 (v/v)+0.1% formic acid, (B) acetonitrile/water 95/5 (v/v)+0.1% formic acid, gradient: 1% (B) 0-0.1 min, 15% (B) 0.1-2.5 min for Ex. 1 and 1% (B) 0-0.1 min, 40% (B) 0.1-2.5 min for Ex. 2, Ex. 3, Ex. 4, Ex. 5 and Ex. 6. The detection and quantification was performed by mass spectrometry, with electrospray interface in positive mode and selective fragmentation of analytes (4000 Q Trap mass spectrometer, AB Sciex).
PK parameters were calculated by WinNonLin™ software version 5.3 (Pharsight-A Certara™ Company, Mountain View, Calif. 94041 USA) using a one-compartmental model analysis. PK parameters were determined by least-square fitting of the model to the experimental data.

COc1ccc(C[C@@H]2NC(=O)[C@H](Cc3c[nH]cn3)NC(=O)[C@H](Cc3ccc(O)cc3)NC(=O)[C@@H]3CCCN3C(=O)[C@H]3CCCN3C(=O)[C@H](CCCCNC(C)C)NC(=O)[C@H](CCC(N)=O)NC(=O)[C@H](Cc3ccc(O)cc3)NC(=O)[C@@H]3CSSC[C@H](NC2=O)C(=O)N[C@@H](CO)C(=O)N[C@@H](C)C(=O)N2CCC[C@@H]2C(=O)N[C@@H](CCCNC(C)C)C(=O)N[C@@H](CCCNC(=N)N)C(=O)N[C@@H](Cc2ccc(O)cc2)C(=O)N3)cc1 [Ex. 2, cyclo(-Tyr^1-His^2-Tyr(Me)^3-Cys^4-Ser^5-Ala^6-^DPro^7-Orn(iPr)^8-Arg^9-Tyr^10-Cys^11-Tyr^12-Gln^13-Lys(iPr)^14-^DPro^15-Pro^16-), disulfide bond between Cys^4 and Cys^11] (cyclo(YHY(Me)CSA[dP][Orn(iPr)]RYCYQ[Lys(iPr)][dP]P); disulfide 4-11)
CFU/mL ± SD [1]: 2894 CFU/mL | level at 0.083 h ([2]; 0.083 h, read-out: Calc. Conc. (plasma)): 1430 ng/mL | level at 0.25 h ([2]; 0.25 h, read-out: Calc. Conc. (plasma)): 1300 ng/mL | level at 0.5 h ([2]; 0.5 h, read-out: Calc. Conc. (plasma)): 836 ng/mL | level at 1 h ([2]; 1 h, read-out: Calc. Conc. (plasma)): 578 ng/mL | level at 2 h ([2]; 2 h, read-out: Calc. Conc. (plasma)): 234 ng/mL | level at 3 h ([2]; 3 h, read-out: Calc. Conc. (plasma)): 68 ng/mL | level at 4 h ([2]; 4 h, read-out: Calc. Conc. (plasma)): 22 ng/mL | AUC(0-inf) ([2]; one-compartmental model): 1520 ng·h/mL | Cmax ([2]; one-compartmental model): 1580 ng/mL | clearance ([2]; one-compartmental model): 11 mL/min/kg | half-life ([2]; one-compartmental model): 42 min | Vd ([2]; one-compartmental model, read-out: Vdis): 0.635 L/kg
